For this experiment, the target named is T1, human PD-1 / PD-L1-Ig binding on Jurkat cell line over-expressing human PD-1 (Jurkat-PD-1) (Homo sapiens, UniProt Q15116).
T1 construct: expressed in transfected cells; host or cells: Jurkat
The experiment is described as follows: Jurkat-PD-1 Cell Binding High-Content Screening Assay (CBA). It is filed as cell-based. The method in brief:
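PE-PD-L1-Ig 20 nM final; cells in DMEM/10% FCS; cpd pre-incubation 2 h, 37° C; ligand 1 h; PFA fix + Hoechst 33342; high-content imaging read-out.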

The mark [1] stands for this setting: Jurkat-PD-1 cells, PE-labeled PD-L1-Ig 20 nM final; read-out: Jurkat HPD1_PDL1 IC50.

IC50 data for eleven compounds are collected here from patent US20250163104A1, “MACROCYCLIC IMMUNOMODULATORS” (priority 2021, published 2025).

Where two headings read alike, the source gives them in different places. Where a SMILES comes first, the peptide text is derived from it. Bridges are numbered along the chain shown (N, C = ends). [ ]: non-standard residue; d: D form. The star is where a group is joined. ξ: configuration not given here. Ala(morpholin-4-yl) = N[C@@H](CN1CCOCC1)C(=O)O; Bip = N[C@@H](Cc1ccc(-c2ccccc2)cc1)C(=O)O; Phe(3-Me) = Cc1cccc(C[C@H](N)C(=O)O)c1; Gly(octyl) = CCCCCCCC[C@H](N)C(=O)O; Gly(cPent) = N[C@H](C(=O)O)C1CCCC1; 4Pal = N[C@@H](Cc1ccncc1)C(=O)O; Cha = N[C@@H](CC1CCCCC1)C(=O)O; Cit = NC(=O)NCCC[C@H](N)C(=O)O; Ile(3ξ) = CCC(C)[C@H](N)C(=O)O; Thr(3ξ) = CC(O)[C@H](N)C(=O)O; Carboxymethyl = O=C(O)C*; Nle = CCCC[C@H](N)C(=O)O; Orn = NCCC[C@H](N)C(=O)O; Pra = C#CC[C@H](N)C(=O)O; Dab = NCC[C@H](N)C(=O)O; Dap = NC[C@H](N)C(=O)O

T1 sequence (Q15116 25-288): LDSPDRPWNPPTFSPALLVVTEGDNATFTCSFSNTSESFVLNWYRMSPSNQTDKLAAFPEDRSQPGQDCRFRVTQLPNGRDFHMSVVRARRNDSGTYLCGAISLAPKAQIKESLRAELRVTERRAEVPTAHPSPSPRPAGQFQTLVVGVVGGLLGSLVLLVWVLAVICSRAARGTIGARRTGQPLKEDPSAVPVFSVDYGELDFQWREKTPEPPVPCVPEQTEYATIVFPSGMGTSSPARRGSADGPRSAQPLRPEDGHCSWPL

For the compound `CC[C@H](C)[C@@H]1NC(=O)[C@H](Cc2c[nH]c3ccccc23)NC(=O)[C@H](CC(=O)O)NC(=O)[C@H](Cc2ccc(OCC(=O)O)cc2)NC(=O)[C@H](CN)NC(=O)CSC[C@@H](C(=O)N[C@@H](C)C(N)=O)NC(=O)[C@H]([C@@H](C)O)NC(=O)[C@H](C(C)C)NC(=O)[C@H](CC2CCCCC2)NC(=O)[C@H](CCN)NC(=O)[C@@H](CC(C)C)NC(=O)[C@H](CCCN)NC(=O)[C@H](CCCNC(N)=O)NC(=O)[C@H](Cc2ccc(-c3ccccc3)cc2)NC1=O` [Compound 1316] ({CH2CO}-[Dap]Y(Carboxymethyl)DWI[Bip][Cit][Orn][dL][Dab][Cha]VTCA-NH2; thioether N-14), the concentration for half-maximal inhibition (IC50) under setting [1] is 9.1 nM. Take `CCCC[C@@H]1NC(=O)[C@H](CC(N)=O)NC(=O)[C@@H](CC(C)C)NC(=O)[C@H](CN)NC(=O)[C@H](C(C)C)NC(=O)[C@H](Cc2ccc(-c3ccccc3)cc2)NC(=O)[C@H](CC(C)C)NC(=O)[C@H](Cc2c[nH]c3ccccc23)NC(=O)[C@H](CC(=O)O)NC(=O)[C@H](Cc2ccc(OCC(=O)O)cc2)NC(=O)[C@H](CN)NC(=O)CSC[C@@H](C(=O)NCC(N)=O)NC(=O)[C@H](CO)NC(=O)[C@H](C(C)C)NC1=O` [Compound 1399] ({CH2CO}-[Dap]Y(Carboxymethyl)DWL[Bip]V[Dap][dL]N[Nle]VSCG-NH2; thioether N-14): the IC50 under setting [1] is 16.1 nM. As for `Cc1cccc(C[C@@H]2NC(=O)[C@H](CC(=O)O)NC(=O)[C@H](Cc3ccc(C(=O)O)cc3)NC(=O)[C@H](Cc3ccncc3)NC(=O)CSC[C@@H](C(=O)N[C@@H](C)C(N)=O)NC(=O)[C@H]([C@@H](C)O)NC(=O)[C@H](C(C)C)NC(=O)[C@H](CC3CCCCC3)NC(=O)[C@H](CCN)NC(=O)[C@@H](CC(C)C)NC(=O)[C@H](CCCN)NC(=O)[C@H](C3CC3)NC(=O)[C@H](Cc3ccc(-c4ccccc4)cc3)NC(=O)[C@H](C(C)C)NC2=O)c1` [Compound 1617], under setting [1], the IC50 came to 8.5 nM. The same measure, in the same setting: the result for `CC(C)C[C@H]1NC(=O)[C@H](CCCN)NC(=O)[C@H](CCCNC(N)=O)NC(=O)[C@H](Cc2ccc(-c3ccccc3)cc2)NC(=O)[C@H](C(C)C)NC(=O)[C@H](Cc2c[nH]c3ccccc23)NC(=O)[C@H](CC(=O)O)NC(=O)[C@H](Cc2ccc(OCC(=O)O)cc2)NC(=O)[C@H](Cc2ccc(OCC(=O)O)cc2)NC(=O)CSC[C@@H](C(=O)N[C@@H](C)C(N)=O)NC(=O)[C@H]([C@@H](C)O)NC(=O)[C@H](C(C)C)NC(=O)[C@H](Cc2ccc(O)cc2)NC(=O)[C@H](CCN)NC1=O` [Compound 1685] ({CH2CO}-Y(Carboxymethyl)Y(Carboxymethyl)DWV[Bip][Cit][Orn][dL][Dab]YVTCA-NH2; thioether N-14) reads 175 nM; that for `C#CC[C@H](NC(=O)[C@H](CCN)NC(=O)[C@@H]1CSCC(=O)N[C@@H](CN2CCOCC2)C(=O)N[C@@H](Cc2ccc(OCC(=O)O)cc2)C(=O)N[C@@H](CC(=O)O)C(=O)N[C@@H](Cc2cccc(C)c2)C(=O)N[C@@H](Cc2ccc(OCC(=O)O)cc2)C(=O)N[C@@H](Cc2ccc(-c3ccccc3)cc2)C(=O)N[C@@H](Cc2ccc(OCC(=O)O)cc2)C(=O)N[C@@H](CCCN)C(=O)N[C@H](CC(C)C)C(=O)N[C@@H](CCN)C(=O)N[C@@H](CC2CCCCC2)C(=O)N[C@@H](C(C)C)C(=O)N[C@@H](CO)C(=O)N1)C(N)=O` [Compound 1863] ({CH2CO}-[Ala(morpholin-4-yl)]Y(Carboxymethyl)D[Phe(3-Me)]Y(Carboxymethyl)[Bip]Y(Carboxymethyl)[Orn][dL][Dab][Cha]VSC[Dab][Pra]-NH2; thioether N-14), 4.3 nM.

On to `CC(C)C[C@H]1NC(=O)[C@H](CCCN)NC(=O)[C@H](CN)NC(=O)[C@H](Cc2ccc(-c3ccccc3)cc2)NC(=O)[C@H](C(C)C)NC(=O)[C@H](Cc2c[nH]c3ccccc23)NC(=O)[C@H](CC(=O)O)NC(=O)[C@H](Cc2ccc(C(=O)O)cc2)NC(=O)[C@H](Cc2ccc(OCC(=O)O)cc2)NC(=O)CSC[C@@H](C(=O)N[C@@H](C)C(N)=O)NC(=O)[C@H]([C@@H](C)O)NC(=O)[C@H](C(C)C)NC(=O)[C@H](CC2CCCCC2)NC(=O)[C@H](CCN)NC1=O` [Compound 1384], for which the IC50 under setting [1] was found to be 11 nM.

Consider `CCC(C)[C@@H]1NC(=O)[C@H](Cc2ccc(-c3ccccc3)cc2)NC(=O)[C@H](C2CCCC2)NC(=O)[C@H](Cc2c[nH]c3ccccc23)NC(=O)[C@H](CC(=O)O)NC(=O)[C@H](Cc2ccc(OCC(=O)O)cc2)NC(=O)[C@H](C(C)O)NC(=O)CSC[C@@H](C(=O)N[C@@H](CC(N)=O)C(=O)O)NC(=O)[C@H](CO)NC(=O)[C@H](C(C)C)NC(=O)[C@H](CC(C)C)NC(=O)[C@H](CCN)NC(=O)[C@@H](CC(C)C)NC(=O)[C@H](CCCN)NC1=O` (stereo partly drawn) [Compound 2578] ({CH2CO}-[Thr(3ξ)]Y(Carboxymethyl)DW[Gly(cPent)][Bip][Ile(3ξ)][Orn][dL][Dab]LVSCN-OH; thioether N-14), for which the IC50 (read-out: Jurkat HPD1_PDL1 IC50; Jurkat-PD-1 cells, PE-labeled PD-L1-Ig 20 nM final) was determined as 24.3 nM. Take `CCCCCCCC[C@@H]1NC(=O)[C@H](CCN)NC(=O)[C@@H](CC(C)C)NC(=O)[C@H](CCCN)NC(=O)[C@H](CCCNC(N)=O)NC(=O)[C@H](Cc2ccc(-c3ccccc3)cc2)NC(=O)[C@H](C(C)C)NC(=O)[C@H](Cc2c[nH]c3ccccc23)NC(=O)[C@H](CC(=O)O)NC(=O)[C@H](Cc2ccc(OCC(=O)O)cc2)NC(=O)[C@H](CN)NC(=O)CSC[C@@H](C(=O)N[C@@H](C)C(N)=O)NC(=O)[C@H]([C@@H](C)O)NC(=O)[C@H](C(C)C)NC1=O` [Compound 1352] ({CH2CO}-[Dap]Y(Carboxymethyl)DWV[Bip][Cit][Orn][dL][Dab][Gly(octyl)]VTCA-NH2; thioether N-14): the IC50 under setting [1] came to 110 nM. On the same count and under the same terms, the same measure for `Cc1cccc(C[C@@H]2NC(=O)[C@H](CC(=O)O)NC(=O)[C@H](Cc3ccncc3)NC(=O)[C@H](CN)NC(=O)CSC[C@@H](C(=O)N[C@@H](C)C(N)=O)NC(=O)[C@H]([C@@H](C)O)NC(=O)[C@H](C(C)C)NC(=O)[C@H](CC3CCCCC3)NC(=O)[C@H](Cc3cnc[nH]3)NC(=O)[C@@H](CC(C)C)NC(=O)[C@H](CCCN)NC(=O)[C@H](C(C)C)NC(=O)[C@H](Cc3ccc(-c4ccccc4)cc3)NC(=O)[C@H](C(C)C)NC2=O)c1` [Compound 1583]: 20 nM. The same measure, in the same setting: the result for `CC(C)C[C@H]1NC(=O)[C@H](CCCN)NC(=O)[C@H](CCCN)NC(=O)[C@H](Cc2ccc(-c3ccccc3)cc2)NC(=O)[C@H](C(C)C)NC(=O)[C@H](Cc2c[nH]c3ccccc23)NC(=O)[C@H](CC(=O)O)NC(=O)[C@H](Cc2ccncc2)NC(=O)[C@H](CN)NC(=O)CSC[C@@H](C(=O)N[C@@H](C)C(N)=O)NC(=O)[C@H]([C@@H](C)O)NC(=O)[C@H](C(C)C)NC(=O)[C@H](CC2CCCCC2)NC(=O)[C@H](CCN)NC1=O` [Compound 1386] ({CH2CO}-[Dap][4Pal]DWV[Bip][Orn][Orn][dL][Dab][Cha]VTCA-NH2; thioether N-14) reads 10.8 nM; that for `CC(C)C[C@@H]1NC(=O)[C@H](Cc2c[nH]c3ccccc23)NC(=O)[C@H](CC(=O)O)NC(=O)[C@H](Cc2ccc(O)cc2)NC(=O)[C@H](Cc2ccccc2)NC(=O)CSC[C@@H](C(=O)N[C@@H](C)C(N)=O)NC(=O)[C@H]([C@@H](C)O)NC(=O)[C@H](C(C)C)NC(=O)[C@H](CC(C)C)NC(=O)[C@H](CCN)NC(=O)[C@@H](CC(C)C)NC(=O)[C@H](CCN)NC(=O)[C@H](C(C)C)NC(=O)[C@H](Cc2ccc(-c3ccccc3)cc2)NC1=O` [Compound 1062] ({CH2CO}-FYDWL[Bip]V[Dab][dL][Dab]LVTCA-NH2; thioether N-14), 12.4 nM.

The term IC50 denotes the midpoint of a concentration-inhibition curve.
